ChEMBL document CHEMBL1201862, “PubChem BioAssay data set” (2004)
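Briefly, cells in 96-well plates were exposed to five compound concentrations for 48 h, and endpoints were estimated by linear interpolation. Abbreviation: GI50, concentration required for 50% inhibition of growth.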 Active and inactive are the calls of the source. Cut-off read from the data, not from the text of the source: active = GI50 up to about 1.1 µM and inactive = higher.

Key:
Test in all cases: NCI tumour cell line growth inhibition, 48 h
OVCAR-8 = test system: OVCAR-8
EKVX = test system: EKVX
IGROV-1 = test system: IGROV-1
Hs-578T = test system: Hs-578T
UACC-62 = test system: UACC-62
M14 = test system: M14
SW-620 = test system: SW-620
SF-295 = test system: SF-295
SNB-19 = test system: SNB-19
SNB-75 = test system: SNB-75
CAKI-1 = test system: CAKI-1
TK-10 = test system: TK-10
786-0 = test system: 786-0
DU-145 = test system: DU-145
NCI-H23 = test system: NCI-H23
HCT-15 = test system: HCT-15
HCT-116 = test system: HCT-116
MDA-MB-231 = test system: MDA-MB-231
Malme-3M = test system: Malme-3M
RXF 393 = test system: RXF 393

| SMILES | GI50 (OVCAR-8) | GI50 (EKVX) | GI50 (IGROV-1) | GI50 (Hs-578T) | GI50 (UACC-62) | GI50 (M14) | GI50 (SW-620) | GI50 (SF-295) | GI50 (SNB-19) | GI50 (SNB-75) | GI50 (CAKI-1) | GI50 (TK-10) | GI50 (786-0) | GI50 (DU-145) | GI50 (NCI-H23) | GI50 (HCT-15) | GI50 (HCT-116) | GI50 (MDA-MB-231) | GI50 (Malme-3M) | GI50 (RXF 393) |
| --- | --- | --- | --- | --- | --- | --- | --- | --- | --- | --- | --- | --- | --- | --- | --- | --- | --- | --- | --- | --- |
| Cn1c(-c2ccc[se]2)ccc1-c1ccc(C=O)[se]1 | 6.98 µM (inactive) | 48.5 µM (inactive) | 0.122 µM (active) | 25.2 µM (inactive) | 0.205 µM (active) | > 86.3 µM (inactive) | 1.3 µM (inactive) | 12.4 µM (inactive) | > 100 µM (inactive) | 23 µM (inactive) | 0.195 µM (active) | 0.124 µM (active) | 20.9 µM (inactive) | 29.4 µM (inactive) | 12.4 µM (inactive) | 8.15 µM | 0.59 µM (active) | 35.9 µM (inactive) | – | – |
| Cc1cn(C2CC(N)C(CN)O2)c(=O)[nH]c1=O (centres undefined) | > 100 µM (inactive) | > 100 µM (inactive) | > 100 µM (inactive) | > 100 µM (inactive) | > 100 µM (inactive) | > 100 µM (inactive) | > 100 µM (inactive) | > 100 µM (inactive) | > 100 µM (inactive) | 38.5 µM (inactive) | > 100 µM (inactive) | > 100 µM (inactive) | > 100 µM (inactive) | > 100 µM (inactive) | > 100 µM (inactive) | > 100 µM | > 100 µM (inactive) | – | > 100 µM (inactive) | > 100 µM (inactive) |
| CC(C)(C)C=C=C(C(C)(C)C)P(=O)(O)O | > 100 µM (inactive) | > 100 µM (inactive) | > 100 µM (inactive) | > 100 µM (inactive) | > 100 µM (inactive) | > 100 µM (inactive) | > 100 µM (inactive) | > 100 µM (inactive) | > 100 µM (inactive) | > 100 µM (inactive) | > 100 µM (inactive) | > 100 µM (inactive) | > 100 µM (inactive) | > 100 µM (inactive) | > 100 µM (inactive) | > 100 µM | > 100 µM (inactive) | – | > 100 µM (inactive) | > 100 µM (inactive) |
| O=C(c1ccc(Cl)cc1Cl)N(C(=O)N1CCC(c2ccccc2)CC1)c1ccccc1 | > 100 µM (inactive) | 86.9 µM (inactive) | 92.9 µM (inactive) | – | 79.4 µM (inactive) | > 100 µM (inactive) | > 100 µM (inactive) | > 100 µM (inactive) | > 100 µM (inactive) | > 100 µM (inactive) | > 100 µM (inactive) | – | > 100 µM (inactive) | > 100 µM (inactive) | > 100 µM (inactive) | > 100 µM | 49.4 µM (inactive) | – | – | – |
| O=C(O)c1ccc(C(c2c(O)oc3ccccc3c2=O)c2c(O)oc3ccccc3c2=O)cc1 | > 100 µM (inactive) | – | – | 5 µM (inactive) | > 100 µM (inactive) | 43.1 µM (inactive) | > 100 µM (inactive) | > 100 µM (inactive) | > 100 µM (inactive) | – | > 100 µM (inactive) | – | > 100 µM (inactive) | > 100 µM (inactive) | 59.7 µM (inactive) | > 100 µM | > 100 µM (inactive) | > 100 µM (inactive) | – | > 100 µM (inactive) |
| COc1cccc(C2c3cc4c(cc3OC(N3CCCC3)C2C)OCO4)c1 (centres undefined) | 18.7 µM (inactive) | 21.3 µM (inactive) | 6.32 µM (inactive) | 8.3 µM (inactive) | 4.66 µM (inactive) | 3.96 µM (inactive) | 4.55 µM (inactive) | 3.04 µM (inactive) | 11.4 µM (inactive) | 4.99 µM (inactive) | 2.12 µM (inactive) | 18.6 µM (inactive) | 9.62 µM (inactive) | 16.3 µM (inactive) | 22.8 µM (inactive) | 4.68 µM | 4.76 µM (inactive) | – | – | – |
| CC1(C)CC(=O)C2=C(C1)c1c(ccc3ccccc13)NC2c1cn(Cc2ccc(Cl)cc2)c2ccccc12 (centres undefined) | > 100 µM (inactive) | 30.7 µM (inactive) | 59.2 µM (inactive) | 74.1 µM (inactive) | > 100 µM (inactive) | > 100 µM (inactive) | > 100 µM (inactive) | 31.2 µM (inactive) | 75 µM (inactive) | > 100 µM (inactive) | 13.3 µM (inactive) | 27.7 µM (inactive) | > 100 µM (inactive) | > 100 µM (inactive) | 80.7 µM (inactive) | > 100 µM | 9.35 µM (inactive) | > 100 µM (inactive) | – | – |
| O=S1(=O)NN=C(NCc2ccc(F)cc2)c2ccccc21 | > 94.2 µM (inactive) | > 100 µM (inactive) | > 72.4 µM (inactive) | 17.5 µM (inactive) | 34.7 µM (inactive) | > 50.9 µM (inactive) | > 79.3 µM (inactive) | > 71.9 µM (inactive) | 39.3 µM (inactive) | – | > 89.5 µM (inactive) | – | > 50.9 µM (inactive) | > 100 µM (inactive) | > 100 µM (inactive) | > 64.1 µM | > 100 µM (inactive) | > 100 µM (inactive) | > 89.3 µM (inactive) | 34.9 µM (inactive) |
| Cc1cc(Br)c(N2C3=C(CC4=C2CCCC4=O)C(=O)CCC3)c(Br)c1 | 44.6 µM (inactive) | 31 µM (inactive) | > 100 µM (inactive) | > 100 µM (inactive) | 63.2 µM (inactive) | > 100 µM (inactive) | 31.6 µM (inactive) | – | > 100 µM (inactive) | 46.1 µM (inactive) | > 100 µM (inactive) | > 100 µM (inactive) | 96.6 µM (inactive) | – | 50.9 µM (inactive) | 29.1 µM | – | – | – | 25.8 µM (inactive) |
| Clc1sc(Cl)c2c1[C@H](Cl)C[C@@H]2Cl | 18.4 µM (inactive) | 38.3 µM (inactive) | 17.4 µM (inactive) | 15.9 µM (inactive) | 22.2 µM (inactive) | 15.1 µM (inactive) | 3.87 µM (inactive) | 35.3 µM (inactive) | – | 20 µM (inactive) | 20.2 µM (inactive) | 39.5 µM (inactive) | 19.6 µM (inactive) | 27.5 µM (inactive) | 24.4 µM (inactive) | 20.2 µM | 4.85 µM (inactive) | 32.1 µM (inactive) | 15 µM (inactive) | – |
| O=C(CN1CCCC1)Nc1ccc2c(c1)C1Oc3ccccc3CC1CO2 (centres undefined) | 97.5 µM (inactive) | 69.3 µM (inactive) | 36.6 µM (inactive) | – | 17 µM (inactive) | 20.1 µM (inactive) | 17.3 µM (inactive) | 20.5 µM (inactive) | – | – | 49.3 µM (inactive) | 49 µM (inactive) | 24.7 µM (inactive) | > 100 µM (inactive) | 38.5 µM (inactive) | 18.6 µM | 33 µM (inactive) | 22.9 µM (inactive) | 16.7 µM (inactive) | – |
| O=c1c2cc(I)ccc2nc(-c2cccs2)n1/N=C/c1ccccc1 | > 100 µM (inactive) | > 100 µM (inactive) | > 100 µM (inactive) | – | > 100 µM (inactive) | > 100 µM (inactive) | > 100 µM (inactive) | > 100 µM (inactive) | > 100 µM (inactive) | > 100 µM (inactive) | > 100 µM (inactive) | > 100 µM (inactive) | > 100 µM (inactive) | > 100 µM (inactive) | > 100 µM (inactive) | > 100 µM | > 100 µM (inactive) | – | – | > 100 µM (inactive) |
| NC(Cc1ccc(O)c(O)c1)P(=O)(O)O (centres undefined) | > 100 µM (inactive) | – | > 100 µM (inactive) | – | > 100 µM (inactive) | > 100 µM (inactive) | 20.1 µM (inactive) | > 100 µM (inactive) | > 100 µM (inactive) | > 100 µM (inactive) | > 100 µM (inactive) | > 100 µM (inactive) | > 100 µM (inactive) | > 100 µM (inactive) | > 100 µM (inactive) | > 100 µM | > 100 µM (inactive) | > 100 µM (inactive) | 81.5 µM (inactive) | > 100 µM (inactive) |
| NC(=S)N/N=C(\CCC(=O)Nc1ccccc1[N+](=O)[O-])CC(=O)c1ccco1 | > 100 µM (inactive) | > 100 µM (inactive) | > 100 µM (inactive) | – | > 100 µM (inactive) | > 100 µM (inactive) | > 100 µM (inactive) | > 100 µM (inactive) | > 100 µM (inactive) | > 100 µM (inactive) | > 100 µM (inactive) | > 100 µM (inactive) | > 100 µM (inactive) | – | > 100 µM (inactive) | > 100 µM | > 100 µM (inactive) | – | > 100 µM (inactive) | > 100 µM (inactive) |
| O=C(N/N=C1\C(=O)N(c2nccs2)C(=O)C(=O)C1c1nc2ccccc2s1)c1ccccc1O (centres undefined) | 43 µM (inactive) | > 100 µM (inactive) | 25.9 µM (inactive) | – | 31.3 µM (inactive) | > 100 µM (inactive) | 47.9 µM (inactive) | 47.5 µM (inactive) | 60 µM (inactive) | 3.3 µM (inactive) | > 100 µM (inactive) | > 100 µM (inactive) | > 100 µM (inactive) | – | 29.5 µM (inactive) | 41.8 µM | 29.9 µM (inactive) | – | > 100 µM (inactive) | 21.1 µM (inactive) |
| Cc1nc2c(nc1C)C(=O)C1=C(C2=O)C2C=CC1CC2 | 3.48 µM (inactive) | 7 µM (inactive) | 2.63 µM (inactive) | – | 2.86 µM (inactive) | 12.8 µM (inactive) | 2.74 µM (inactive) | 11.7 µM (inactive) | 32.6 µM (inactive) | 28.6 µM (inactive) | 18.3 µM (inactive) | 28.8 µM (inactive) | 11.9 µM (inactive) | – | 4.04 µM (inactive) | 15.1 µM | 1.54 µM (inactive) | – | 11.8 µM (inactive) | 6.79 µM (inactive) |
